Test results from US10316035B2, “Triazolopyridine inhibitors of myeloperoxidase” (BRISTOL-MYERS SQUIBB COMPANY, priority 2015, dated 2019).

Target: T1, myeloperoxidase (MPO) (Homo sapiens, UniProt P05164)
T1 sequence (P05164 49-745): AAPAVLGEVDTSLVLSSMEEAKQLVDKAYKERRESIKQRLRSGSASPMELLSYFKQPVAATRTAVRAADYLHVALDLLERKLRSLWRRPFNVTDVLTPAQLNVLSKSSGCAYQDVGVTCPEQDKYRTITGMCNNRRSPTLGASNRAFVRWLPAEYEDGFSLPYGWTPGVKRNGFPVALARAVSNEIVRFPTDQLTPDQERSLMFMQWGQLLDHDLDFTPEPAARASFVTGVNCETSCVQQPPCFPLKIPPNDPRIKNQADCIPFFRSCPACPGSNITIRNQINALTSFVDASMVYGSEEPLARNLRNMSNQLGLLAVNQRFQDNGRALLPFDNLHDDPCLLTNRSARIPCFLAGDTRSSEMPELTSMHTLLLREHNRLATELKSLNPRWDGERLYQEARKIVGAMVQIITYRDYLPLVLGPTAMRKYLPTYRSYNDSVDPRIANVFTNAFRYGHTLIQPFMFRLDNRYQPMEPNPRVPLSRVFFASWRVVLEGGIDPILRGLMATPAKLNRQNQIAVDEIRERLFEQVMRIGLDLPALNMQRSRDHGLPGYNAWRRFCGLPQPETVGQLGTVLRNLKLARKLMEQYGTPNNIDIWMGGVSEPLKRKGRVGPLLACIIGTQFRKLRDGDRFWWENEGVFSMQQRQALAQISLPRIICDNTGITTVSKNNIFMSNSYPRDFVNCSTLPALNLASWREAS
Test: MPO peroxidation assay (Amplex Red assay)
Type: biochemical
Conditions: MPO peroxidation, potency range class; read-out: Amplex Red IC50
In short: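 Peroxidase turnover of Amplex Red to fluorescent resorufin (Ex 535/Em 590 nm) was followed for 15 min in 100 mM KPi, pH 7.4, after 10 min room-temperature preincubation of compound with 200 pM enzyme plus 40 nM H2O2. The substrate mix contained 200 μM Amplex Red and 10 mM H2O2. IC50s came from linear-phase rates (180–540 s) fitted with a Hill equation.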

Compound	IC50
COc1cccc(Cl)c1-c1cccc(COc2cc(N)nc3[nH]nnc23)c1 [Example 124, 7-((2′-Chloro-6′-methoxybiphenyl-3-yl)methoxy)-3H-[1,2,3]triazolo[4,5-b]pyridin-5-amine]	101 to 999 nM
COc1ccccc1COc1cc(N)nc2[nH]nnc12 [Example 125]	1 to 100 nM
Nc1cc(OC(c2ccccc2)C(F)(F)F)c2nn[nH]c2n1 (stereo not shown) [Example 126, 7-(2,2,2-Trifluoro-1-phenylethoxy)-3H-[1,2,3]triazolo[4,5-b]pyridin-5-amine]	101 to 999 nM
COc1cccc(COc2cc(N)nc3[nH]nnc23)c1 [Example 127, 7-((3-Methoxybenzyl)oxy)-3H-[1,2,3]triazolo[4,5-b]pyridin-5-amine]	101 to 999 nM
CCOc1ccccc1COc1cc(N)nc2[nH]nnc12 [Example 128, 7-((2-Ethoxybenzyl)oxy)-3H-[1,2,3]triazolo[4,5-b]pyridin-5-amine]	1 to 100 nM
Nc1cc(OCc2cccc(F)c2F)c2nn[nH]c2n1 [Example 129, 7-((2,3-Difluorobenzyl)oxy)-3H-[1,2,3]triazolo[4,5-b]pyridin-5-amine]	1 to 100 nM
Nc1cc(OCc2ccc(F)cc2F)c2nn[nH]c2n1 [Example 130, 7-((2,4-Difluorobenzyl)oxy)-3H-[1,2,3]triazolo[4,5-b]pyridin-5-amine]	1 to 100 nM
CS(=O)(=O)c1cc(Cl)ccc1COc1cc(N)nc2[nH]nnc12 [Example 131, 7-(4-Chloro-2-(methylsulfonyl)benzyloxy)-3H-[1,2,3]triazolo[4,5-b]pyridin-5-amine]	1 to 100 nM
Nc1cc(OCC2CCCCC2)c2nn[nH]c2n1 [Example 132, 7-(Cyclohexylmethoxy)-3H-[1,2,3]triazolo[4,5-b]pyridin-5-amine]	101 to 999 nM
CC(Oc1cc(N)nc2[nH]nnc12)c1ccccc1F (stereo not shown) [Example 140, 7-(1-(2-Fluorophenyl)ethoxy)-3H-[1,2,3]triazolo[4,5-b]pyridin-5-amine]	101 to 999 nM
CC(Oc1cc(N)nc2[nH]nnc12)c1ccc(OC(F)(F)F)cc1 (stereo not shown) [Example 142, 7-(1-(4-(Trifluoromethoxy)phenyl)ethoxy)-3H-[1,2,3]triazolo[4,5-b]pyridin-5-amine]	1000 to 10000 nM
CC(Oc1cc(N)nc2[nH]nnc12)c1cccc(OC(F)(F)F)c1 (stereo not shown) [Example 143, 7-(1-(3-(Trifluoromethoxy)phenyl)ethoxy)-3H-[1,2,3]triazolo[4,5-b]pyridin-5-amine]	101 to 999 nM
CC(=O)Nc1cccc(C(C)Oc2cc(N)nc3[nH]nnc23)c1 (stereo not shown) [Example 144, N-(3-(1-(5-Amino-3H-[1,2,3]triazolo[4,5-b]pyridin-7-yloxy)ethyl)phenyl)acetamide]	101 to 999 nM
CCC(Oc1cc(N)nc2[nH]nnc12)c1ccc(Cl)c(Cl)c1 (stereo not shown) [Example 145, 7-(1-(3,4-Dichlorophenyl)propoxy)-3H-[1,2,3]triazolo[4,5-b]pyridin-5-amine]	101 to 999 nM
Nc1cc(OCc2ccc3ccccc3c2)c2nn[nH]c2n1 [Example 147, 7-(Naphthalen-2-ylmethoxy)-3H-[1,2,3]triazolo[4,5-b]pyridin-5-amine]	101 to 999 nM
Nc1cc(OCc2cccc(Br)c2)c2nn[nH]c2n1 [Example 148, 7-(3-Bromobenzyloxy)-3H-[1,2,3]triazolo[4,5-b]pyridin-5-amine]	1 to 100 nM

Compound	IC50
Nc1cc(OCc2cc(C(=O)N3CCCC3)ccc2F)c2nn[nH]c2n1 [Example 152, (3-((5-amino-3H-[1,2,3]triazolo[4,5-b]pyridin-7-yloxy)methyl)-4-fluorophenyl)(pyrrolidin-1-yl)methanone]	101 to 999 nM
Nc1cc(OCc2cc(C(=O)N3CCC(O)CC3)ccc2F)c2nn[nH]c2n1 [Example 153, (3-((5-amino-3H-[1,2,3]triazolo[4,5-b]pyridin-7-yloxy)methyl)-4-fluorophenyl)(4-hydroxypiperidin-1-yl)methanone]	101 to 999 nM
CN(CCO)C(=O)c1ccc(F)c(COc2cc(N)nc3[nH]nnc23)c1 [Example 154, 3-((5-amino-3H-[1,2,3]triazolo[4,5-b]pyridin-7-yloxy)methyl)-4-fluoro-N-(2-hydroxyethyl)-N-methylbenzamide]	101 to 999 nM
Nc1cc(OCc2cc(C(=O)Nc3nnc(C(F)(F)F)s3)ccc2F)c2nn[nH]c2n1 [Example 155, 3-((5-amino-3H-[1,2,3]triazolo[4,5-b]pyridin-7-yloxy)methyl)-4-fluoro-N-(5-(trifluoromethyl)-1,3,4-thiadiazol-2-yl)benzamide]	101 to 999 nM
Nc1cc(OCc2cc(C(=O)NCCCN3CCCC3=O)ccc2F)c2nn[nH]c2n1 [Example 156, 3-((5-amino-3H-[1,2,3]triazolo[4,5-b]pyridin-7-yloxy)methyl)-4-fluoro-N-(3-(2-oxopyrrolidin-1-yl)propyl) benzamide]	101 to 999 nM
CC(NC(=O)c1ccc(F)c(COc2cc(N)nc3[nH]nnc23)c1)c1ccccc1 (stereo not shown) [Example 157, 3-((5-amino-3H-[1,2,3]triazolo[4,5-b]pyridin-7-yloxy)methyl)-4-fluoro-N-(1-phenylethyl)benzamide]	1 to 100 nM
COCCNC(=O)c1ccc(F)c(COc2cc(N)nc3[nH]nnc23)c1 [Example 158, 3-((5-amino-3H-[1,2,3]triazolo[4,5-b]pyridin-7-yloxy)methyl)-4-fluoro-N-(2-methoxyethyl)benzamide]	1 to 100 nM
CN(C(=O)c1ccc(F)c(COc2cc(N)nc3[nH]nnc23)c1)c1ccccc1 [Example 159, 3-((5-amino-3H-[1,2,3]triazolo[4,5-b]pyridin-7-yloxy)methyl)-4-fluoro-N-methyl-N-phenylbenzamide]	1 to 100 nM
Nc1cc(OCc2cc(C(=O)NC3(CO)CCCC3)ccc2F)c2nn[nH]c2n1 [Example 160, 3-((5-amino-3H-[1,2,3]triazolo[4,5-b]pyridin-7-yloxy)methyl)-4-fluoro-N-(1-(hydroxymethyl)cyclopentyl) benzamide]	101 to 999 nM
NC(=O)CNC(=O)c1ccc(F)c(COc2cc(N)nc3[nH]nnc23)c1 [Example 161, N-(2-amino-2-oxoethyl)-3-((5-amino-3H-[1,2,3]triazolo[4,5-b]pyridin-7-yloxy)methyl)-4-fluorobenzamide]	1 to 100 nM
Nc1cc(OCc2cc(C(=O)NCC3CC3)ccc2F)c2nn[nH]c2n1 [Example 162, 3-((5-amino-3H-[1,2,3]triazolo[4,5-b]pyridin-7-yloxy)methyl)-N-(cyclopropylmethyl)-4-fluorobenzamide]	1 to 100 nM
Nc1cc(OCc2cc(C(=O)NC3CCC(O)CC3)ccc2F)c2nn[nH]c2n1 (stereo not shown) [Example 163]	101 to 999 nM
CN1CCC(N(C)C(=O)c2ccc(F)c(COc3cc(N)nc4[nH]nnc34)c2)C1 (stereo not shown) [Example 164]	101 to 999 nM
Nc1cc(OCc2cc(C(=O)N3CC[C@@H](O)C3)ccc2F)c2nn[nH]c2n1 [Example 166, (R)-(3-((5-amino-3H-[1,2,3]triazolo [4,5-b]pyridin-7-yloxy)methyl)-4-fluorophenyl)(3-hydroxypyrrolidin-1-yl)methanone]	101 to 999 nM
Nc1cc(OCc2cc(C(=O)N3CCNC(=O)C3)ccc2F)c2nn[nH]c2n1 [Example 169, 4-(3-((5-amino-3H-[1,2,3]triazolo [4,5-b]pyridin-7-yloxy)methyl)-4-fluorobenzoyl)piperazin-2-one]	101 to 999 nM
